21 compounds from US9481648B2, “Kinase inhibitors” (Respivert Limited, priority 2013, dated 2016) can be followed below.

The experiment deals with GSK 3α (Homo sapiens (Human), UniProt P49840). The experiment can be described thus: GSK 3α enzyme inhibition (FRET, Z-LYTE; Method 2). Conditions: read-out: IC50 Values for Enzyme Inhibition GSK3α. The format is biochemical. How it is done:
The enzyme inhibitory activities of compounds disclosed herein are determined by FRET using synthetic peptides labelled with both donor and acceptor fluorophores (Z-LYTE, Invitrogen Ltd., Paisley, UK).
The inhibitory activities of compounds of the invention against the GSK 3α enzyme isoform (Invitrogen), are evaluated by determining the level of activation I phosphorylation of the target peptide. The GSK3-α protein (500 ng/mL, 2.5 μL) is mixed with the test compound (2.5 μL at either 4 μg/mL, 0.4 μg/mL, 0.04 μg/mL, or 0.004 μg/mL) for 2 hr at RT. The FRET peptide (8 μM, 2.5 μL), which is a phosphorylation target for GSK3α, and ATP (40 μM, 2.5 μL) are then added to the enzyme\compound mixture and the resulting mixture incubated for 1 hr. Development reagent (protease, 5 μL) is added for 1 hr prior to detection in a fluorescence microplate reader (Varioskan® Flash, ThermoFisher Scientific).
In all cases, the site-specific protease cleaves non-phosphorylated peptide only and eliminates the FRET signal. Phosphorylation levels of each reaction are calculated using the ratio of coumarin emission (donor) over fluorescein emission (acceptor), for which high ratios indicate high phosphorylation and low ratios indicate low phosphorylation levels.
This method follows the same steps as Method 1 above, but utilises a shorter period of mixing of the test compound (105 minutes instead of 2 hours) with the GSK3-α protein. In addition, the concentrations of test compound employed are either 10 μg/mL, 1 μg/mL, 0.1 μg/mL, or 0.01 μg/mL

pIC50: −log10 of the molar value.

GSK 3α, sequence (P49840 whole entry): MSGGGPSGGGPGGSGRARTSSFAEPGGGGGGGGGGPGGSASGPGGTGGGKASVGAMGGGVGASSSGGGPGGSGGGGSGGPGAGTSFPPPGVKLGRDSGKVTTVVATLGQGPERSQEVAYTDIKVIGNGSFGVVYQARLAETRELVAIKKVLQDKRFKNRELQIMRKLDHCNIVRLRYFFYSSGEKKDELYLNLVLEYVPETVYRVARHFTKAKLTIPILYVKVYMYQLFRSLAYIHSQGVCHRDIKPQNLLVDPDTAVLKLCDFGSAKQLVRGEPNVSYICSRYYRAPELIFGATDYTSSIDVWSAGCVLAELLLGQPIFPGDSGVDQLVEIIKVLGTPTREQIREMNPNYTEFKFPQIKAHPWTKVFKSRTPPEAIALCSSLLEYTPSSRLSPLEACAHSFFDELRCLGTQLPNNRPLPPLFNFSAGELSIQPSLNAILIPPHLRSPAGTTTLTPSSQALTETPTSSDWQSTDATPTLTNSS

The term pIC50 denotes −log10 of the IC50, conventionally taken in molar units. Consider `COCCOCCOCCOc1cc(Nc2nccc(Oc3ccc(NC(=O)Nc4cc(C(C)(C)C)cc(C(=O)NC(C)C)c4OC)c4ccccc34)n2)cc(OC)c1` [Example 42, 5-(tert-Butyl)-N-isopropyl-2-methoxy-3-(3-(4-((2-((3-methoxy-5-(2-(2-(2-methoxyethoxy)-ethoxy)ethoxy)phenyl)amino)pyrimidin-4-yl)oxy)naphthalen-1-yl)ureido)benzamide], for which the negative-log IC50 (pIC50) was 6.15. Take `COCCOCCOCCOc1cc(Nc2nccc(Oc3ccc(NC(=O)Nc4cc(C(C)(C)C)cc(NS(=O)(=O)C(F)(F)F)c4OC)c4ccccc34)n2)cc(OC)c1` [Example 71]: the pIC50 is 5.58.

For `COc1c(NC(=O)Nc2ccc(Oc3ccnc(Nc4ccccc4)c3)c(F)c2F)cc(C(C)(C)C)cc1C(=O)NC1COC1` [Example 82, 5-(tert-Butyl)-3-(3-(2,3-difluoro-4-((2-(phenylamino)pyridin-4-yl)oxy)phenyl)ureido)-2-methoxy-N-(oxetan-3-yl)benzamide], the pIC50 is 6.74. Under `C#Cc1cc(Nc2nccc(Oc3ccc(NC(=O)Nc4cc(C(C)(C)C)cc(C(N)=O)c4OC)c4ccccc34)n2)cc(C(=O)NCCN2CCOCC2)c1` [85(g), 5-tert-Butyl-3-[[4-[2-[3-ethynyl-5-(2-morpholinoethylcarbamoyl)anilino]-pyrimidin-4-yl]oxy-1-naphthyl]carbamoylamino]-2-methoxy-benzamide] stands 6.36; under `COc1cc(Nc2nccc(Oc3ccc(NC(=O)Nc4cc(C(C)(C)C)cc(NS(C)(=O)=O)c4OC)c4ccccc34)n2)cc(C(=O)NCCN2CCN(C)CC2)c1` [Example 85(e), 3-[[4-[[4-[[5-tert-Butyl-3-(methanesulfonamido)-2-methoxyphenyl]-carbamoylamino]-1-naphthyl]oxy]pyrimidin-2-yl]amino]-5-methoxy-N-[2-(4-methyypiperazin-1-yl)ethyl]benzamide], 6.52. In the case of `COCCOCCOCCOc1cc(Nc2cc(Oc3ccc(NC(=O)Nc4cc(C(C)(C)C)cc(C(=O)NCCN)c4OC)c4ccccc34)ccn2)cc(OC)c1` [83(g), N-(2-aminoethyl)-5-(tert-butyl)-2-methoxy-3-(3-(4-((2-((3-methoxy-5-(2-(2-(2-methoxy-ethoxy)ethoxy)ethoxy)phenyl)amino)pyridin-4-yl)oxy)naphthalen-1-yl)ureido)benzamide], the pIC50 is 5.66. Under `COCCOCCOCCOc1cc(Nc2nccc(Oc3ccc(NC(=O)Nc4cc(C(C)(C)C)cc5nc(C)oc45)c4ccccc34)n2)cc(OC)c1` [Example 64, 1-(5-(tert-Butyl)-2-methylbenzo[d]oxazol-7-yl)-3-(4-((2-((3-methoxy-5-(2-(2-(2-methoxy-ethoxy)ethoxy)ethoxy)phenyl)amino)pyrimidin-4-yl)oxy)naphthalen-1-yl)urea] stands 5.84. Under `COCCNC(=O)c1cc(C(C)(C)C)cc(NC(=O)Nc2ccc(Oc3ccnc(Nc4cc(OC)cc(OCCOCCOCCOC)c4)n3)c3ccccc23)c1OC` [Example 43, 5-(tert-Butyl)-2-methoxy-3-(3-(4-((2-((3-methoxy-5-(2-(2-(2-methoxyethoxy)ethoxy)-ethoxy)phenyl)amino)pyrimidin-4-yl)oxy)naphthalen-1-yl)ureido)-N-(2-methoxyethyl)-benzamide] stands 6.28.

For `CCNC(=O)c1cc(C(C)(C)C)cc(NC(=O)Nc2ccc(Oc3ccnc(Nc4cc(OC)cc(OCCOCCOCCOC)c4)n3)c3ccccc23)c1OC` [Example 41, 5-(tert-Butyl)-N-ethyl-2-methoxy-3-(3-(4-((2-((3-methoxy-5-(2-(2-(2-methoxyethoxy)-ethoxy)ethoxy)phenyl)amino)pyrimidin-4-yl)oxy)naphthalen-1-yl)ureido)benzamide], the negative logarithm of the IC50 (pIC50) is 6.35. Turning to `COCCOCCOCCOc1cc(Nc2nccc(Oc3ccc(NC(=O)Nc4cc(C(C)(C)C)cc(C(=O)NCc5ccccc5)c4OC)c4ccccc34)n2)cc(OC)c1` [Example 38, N-Benzyl-5-(tert-butyl)-2-methoxy-3-(3-(4-((2-((3-methoxy-5-(2-(2-(2-methoxyethoxy)-ethoxy)ethoxy)phenyl)amino)pyrimidin-4-yl)oxy)naphthalen-1-yl)ureido)benzamide], the negative logarithm of the IC50 (pIC50) was 4.97. With `COCCOCCOCC[S+]([O-])c1cc(Nc2cc(Oc3ccc(NC(=O)Nc4cc(C(C)(C)C)cc(NS(C)(=O)=O)c4OC)c4ccccc34)ccn2)cc(OC)c1` (stereo not drawn) [Example 85(x), 1-[5-tert-Butyl-3-(methanesulfonamido)-2-methoxyphenyl]-3-[4-[2-[3-methoxy-5-[2-[2-(2-methoxyethoxy)ethoxy]ethylsufinyl]anilino]pyridin-4-yl]oxy-1-naphthyl]urea], the pIC50 is 6.06. Under `COc1cc(Nc2nccc(Oc3ccc(NC(=O)Nc4cc(C(C)(C)C)cc(NS(C)(=O)=O)c4OC)c4ccccc34)n2)cc(OCCOCCC(=O)O)c1` [Example 31, 3-(2-(3-((4-((4-(3-(5-(tert-Butyl)-2-methoxy-3-(methylsulfonamido)phenyl)ureido)-naphthalen-1-yl)oxy)pyrimidin-2-yl)amino)-5-methoxyphenoxy)ethoxy)propanoic acid] stands 6.87; under `COc1cc(Nc2cc(Oc3ccc(NC(=O)Nc4cc(C(C)(C)C)cc(NS(C)(=O)=O)c4OC)c4ccccc34)ccn2)cc(C(=O)NCCN2CCCN(C)CC2)c1` [Example 85(p), 3-[[4-[[4-[[5-tert-Butyl-3-(methanesulfonamido)-2-methoxyphenyl]-carbamoylamino]-1-naphthyl]oxy]-2-pyridyl]amino]-5-methoxy-N-[2-(4-methyl-1,4-diazean-1-yl)ethyl]benzamide], 5.94; under `COc1cc(Nc2cc(Oc3ccc(NC(=O)Nc4cc(C(C)(C)C)cc(NS(C)(=O)=O)c4OC)c4ccccc34)ccn2)cc(C(=O)NCCN2CCCC2)c1` [83(d), 3-((4-((4-(3-(5-(tert-butyl)-2-methoxy-3-(methysulfonamido)phenyl)ureido)naphthalen-1-yl)oxy)pyridin-2-yl)amino)-5-methoxy-N-(2-(pyrrolidin-1-yl)ethyl)benzamide], 5.99.

With `COCCOCCOCCOc1cc(Nc2nccc(Oc3ccc(NC(=O)Nc4cc(C(C)(C)C)cc(C#N)c4OC)c4ccccc34)n2)cc(OC)c1` [Example 22, 1-(5-(tert-Butyl)-3-cyano-2-methoxyphenyl)-3-(4-((2-((3-methoxy-5-(2-(2-(2-methoxy-ethoxy)ethoxy)ethoxy)phenyl)amino)pyrimidin-4-yl)oxy)naphthalen-1-yl)urea], the negative logarithm of the IC50 (pIC50) was 5.67. Regarding `COCCOCCOCCOc1cc(Nc2nccc(Oc3ccc(NC(=O)Nc4cc(C(C)(C)C)cc(N)c4OC)c4ccccc34)n2)cc(OC)c1` [Example 25, 1-(3-Amino-5-(tert-butyl)-2-methoxyphenyl)-3-(4-((2-((3-methoxy-5-(2-(2-(2-methoxy-ethoxy)ethoxy)ethoxy)phenyl)amino)pyrimidin-4-yl)oxy)naphthalen-1-yl)urea], the negative logarithm of the IC50 (pIC50) is 5.72. Regarding `COc1c(NC(=O)Nc2ccc(Oc3ccnc(Nc4ccccc4)n3)c3ccccc23)cc(C(C)(C)C)cc1C(=O)NC1COC1` [Example 78, 5-(tert-Butyl)-2-methoxy-N-(oxetan-3-yl)-3-(3-(4-((2-(phenylamino)pyrimidin-4-yl)oxy)-naphthalen-1-yl)ureido)benzamide], the pIC50 is 6.05. As for `C#Cc1cc(Nc2nccc(Oc3ccc(NC(=O)Nc4cc(C(C)(C)C)cc(C(=O)NC)c4OC)c4ccccc34)n2)cc(C(=O)N[C@H](C)CN2CCOCC2)c1` [Example 61, (R)-5-(tert-Butyl)-3-(3-(4-((2-((3-ethynyl-5-((1-morpholinopropan-2-yl)carbamoyl)phenyl)amino)pyrimidin-4-yl)oxy)naphthalen-1-yl)ureido)-2-methoxy-N-methylbenzamide], the pIC50 was 6.43. The value for `COc1cc(CO)cc(Nc2cc(Oc3ccc(NC(=O)Nc4cc(C(C)(C)C)cc(NS(C)(=O)=O)c4OC)c4ccccc34)ccn2)c1` [84(f), 1-[5-tert-Butyl-3-(methanesulfonamido)-2-methoxyphenyl]-3-[4-[[2-[3-(hydroxymethyl)-5-methoxyanilino]-4-pyridyl]oxy]-1-naphthyl]urea] was 5.47; that for `COCCOCCOCCOCCOCCOCCOCCNC(=O)c1cc(Nc2nccc(Oc3ccc(NC(=O)Nc4cc(C(C)(C)C)cc(NS(C)(=O)=O)c4OC)c4ccccc34)n2)cc(OC)c1` [Example 40, 3-((4-((4-(3-(5-(tert-Butyl)-2-methoxy-3-(methylsulfonamido)phenyl)ureido)naphthalen-1-yl)oxy)pyrimidin-2-yl)amino)-N-(2,5,8,11,14,17,20-heptaoxadocosan-22-yl)-5-methoxy-benzamide] was 6.42; that for `COCCOCCOCCOc1cc(Nc2nccc(Oc3ccc(NC(=O)Nc4cc(C(C)(C)C)cc(Nc5ncccn5)c4OC)c4ccccc34)n2)cc(OC)c1` [Example 28, 1-(5-(tert-Butyl)-2-methoxy-3-(pyrimidin-2-ylamino)phenyl)-3-(4-((2-((3-methoxy-5-(2-(2-(2-methoxyethoxy)ethoxy)ethoxy)phenyl)amino)pyrimidin-4-yl)oxy)naphthalen-1-yl)urea] was 5.49.
